For test [1], the system named is Human platelet aggregation caused by ADP. The test can be described thus: Inhibition of ADP-induced platelet aggregation (Mimic-human PRP). In kind it is cell-based. As to conditions: 20 μM ADP, human platelet concentrate diluted with PPP, absorption at 595 nm. The method in brief:
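Ki came from non-linear sigmoidal fits of inhibition, measured as the 3-min rise in absorbance at 595 nm after 20 μM ADP, relative to 0/20 μM ADP controls. Platelets (3–4×10^8/mL in PPP-diluted human PRP) were exposed to 0.01–30 μM compound for 20 min at room temperature beforehand.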

In another test the target is T1, Human P2Y12 receptor (Homo sapiens, UniProt Q9H244).
T1 construct: expressed in transfected cells; host or cells: HEK cells
T1 sequence (Q9H244 whole entry): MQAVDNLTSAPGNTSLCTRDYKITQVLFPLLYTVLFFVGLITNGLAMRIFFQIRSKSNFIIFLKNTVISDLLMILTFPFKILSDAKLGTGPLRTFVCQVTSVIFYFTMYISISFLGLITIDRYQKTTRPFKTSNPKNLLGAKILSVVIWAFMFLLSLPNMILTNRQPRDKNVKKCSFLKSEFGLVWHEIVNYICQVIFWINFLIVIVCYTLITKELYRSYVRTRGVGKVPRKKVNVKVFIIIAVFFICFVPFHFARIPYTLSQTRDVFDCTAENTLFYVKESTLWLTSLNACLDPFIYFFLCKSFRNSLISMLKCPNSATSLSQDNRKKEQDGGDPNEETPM
Nature of the test: Human P2Y12 receptor cell membrane binding assay with [3H] 2-Mes-ADP. The note with it: 1 nM [3H] 2-Mes-ADP, membranes of HEK cells expressing P2Y12 receptor; read-out: Binding activity (IC50). The method in brief:
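Competition binding used 1 nM [3H]2-MeS-ADP on P2Y12-expressing HEK cell membranes for 1 h at room temperature, followed by filtration and scintillation counting.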

Bounds are passed on as bounds.

In turn, `CCCc1cc2c(N3CCn4c(nnc4C(F)(F)F)C3)nc(-c3nnc(CCO)o3)nc2s1` [Example 4-38, 2-{5-[6-Propyl-4-(3-trifluoromethyl-5,6-dihydro-8H-[1,2,4]triazolo[4,3-a]pyrazin-7-yl)thieno[2,3-d]pyrimidin-2-yl]-[1,3,4]oxadiazol-2-yl}ethanol] yielded a Ki in test [1] of 250 nM. In addition, at Human P2Y12 receptor, the IC50 worked out at 320 nM.

Consider `CCCc1cc2c(N3CCn4c(nnc4C(F)(F)F)C3)nc(C(=O)NCC(=O)OCC)nc2s1` [Example 4-8, {[6-Propyl-4-(3-trifluoromethyl-5,6-dihydro-8H-[1,2,4]triazolo[4,3-a]pyrazin-7-yl)thieno[2,3-d]pyrimidine-2-carbonyl]amino}acetic acid ethyl ester], for which the Ki in test [1] amounted to 550 nM. For the same compound, the half-maximal inhibitory concentration (IC50) at Human P2Y12 receptor is 470 nM.

With `CCCc1cc2c(N3CCn4c(C)nnc4C3)nc(OCCCO)nc2s1` [Example 6-17, 3-[4-(3-Methyl-5,6-dihydro-8H-[1,2,4]triazolo[4,3-a]pyrazin-7-yl)-6-propyl-thieno[2,3-d]pyrimidin-2-yloxy]-propan-1-ol], the affinity in test [1] corresponds to a Ki of 400 nM. For the same compound, the IC50 at Human P2Y12 receptor came out at 750 nM.

For the compound `CCCc1cc2c(N3CCn4c(nnc4C(F)(F)F)C3)nc(Oc3cccc(C(=O)O)c3)nc2s1` [Example 3-31, 3-[6-Propyl-4-(3-trifluoromethyl-5,6-dihydro-8H-[1,2,4]triazolo[4,3-a]pyrazin-7-yl)-thieno[2,3-d]pyrimidin-2-yloxy]-benzoic acid], the Ki in test [1] is 2000 nM. Besides, the IC50 at Human P2Y12 receptor was 196 nM.

`CCCc1cc2c(N3CCn4c(nnc4C(F)(F)F)C3)nc(N[C@@H]3C[C@H](OCCO)[C@@H](O)[C@H]3O)nc2s1` [Example 1-33, (1S,2S,3S,5R)-3-(2-Hydroxy-ethoxy)-5-[6-propyl-4-(3-trifluoromethyl-5,6-dihydro-8H-[1,2,4]triazolo[4,3-a]pyrazin-7-yl)-thieno[2,3-d]pyrimidin-2-ylamino]-cyclopentane-1,2-diol] displayed a Ki in test [1] of 250 nM. Also, the half-maximal inhibitory concentration (IC50) at Human P2Y12 receptor was 780 nM.

The compound `CCCc1cc2c(N3CCn4c(nnc4C(F)(F)F)C3)nc(N3CCC(CN)C3)nc2s1` (stereo not drawn) [Example 1-12, C-{1-[6-Propyl-4-(3-trifluoromethyl-5,6-dihydro-8H-[1,2,4]triazolo[4,3-a]pyrazin-7-yl)-thieno[2,3-d]pyrimidin-2-yl]-pyrrolidin-3-yl}-methylamine] registered a Ki in test [1] of 226 nM. Further, at Human P2Y12 receptor, the half-inhibitory concentration (IC50) was determined as 84 nM.

The compound `CCCc1cc2c(N3CCn4c(C)nnc4C3)nc(OCCO)nc2s1` [Example 6-16, 2-[4-(3-Methyl-5,6-dihydro-8H-[1,2,4]triazolo[4,3-a]pyrazin-7-yl)-6-propyl-thieno[2,3-d]pyrimidin-2-yloxy]-ethanol] gave a Ki in test [1] of 61 nM. Also, at Human P2Y12 receptor, the IC50 worked out at 310 nM.

For the compound `CCCc1cc2c(N3CCn4c(nnc4C(F)(F)F)C3)nc(N[C@H]3CCNC3)nc2s1` [Example 1-126, [6-Propyl-4-(3-trifluoromethyl-5,6-dihydro-8H-[1,2,4]triazolo[4,3-a]pyrazin-7-yl)-thieno[2,3-d]pyrimidin-2-yl]-(S)-pyrrolidin-3-yl-amine], the inhibition constant Ki in test [1] is 29 nM. The IC50 on Human P2Y12 receptor stood at 130 nM.

In test [1], `CCCc1cc2c(N3CCn4c(nnc4C(F)(F)F)C3)nc(Cc3nc(C(=O)O)cs3)nc2s1` [Example 4-58, 2-[6-Propyl-4-(3-trifluoromethyl-5,6-dihydro-8H-[1,2,4]triazolo[4,3-a]pyrazin-7-yl)-thieno[2,3-d]pyrimidin-2-ylmethyl]-thiazole-4-carboxylic acid] registered a Ki of 243 nM. Further, on Human P2Y12 receptor, the IC50 was found to be 300 nM.

As to `CCCc1cc2c(N3CCn4c(nnc4C(F)(F)F)C3)nc(Oc3ccc(C(=O)OC)cc3)nc2s1` [Example 3-34, 4-[6-Propyl-4-(3-trifluoromethyl-5,6-dihydro-8H-[1,2,4]triazolo[4,3-a]pyrazin-7-yl)-thieno[2,3-d]pyrimidin-2-yloxy]-benzoic acid methyl ester], in test [1], the inhibitory constant (Ki) is more than 4000 nM. Further, the half-maximal inhibitory concentration (IC50) on Human P2Y12 receptor was found to be 473 nM.

`CCCc1cc2c(N3CCn4c(nnc4C(F)(F)F)C3)nc(OCCO)nc2s1` [Example 3-3, 2-[6-Propyl-4-(3-trifluoromethyl-5,6-dihydro-8H-[1,2,4]triazolo[4,3-a]pyrazin-7-yl)-thieno[2,3-d]pyrimidin-2-yloxy]-ethanol] showed a Ki in test [1] of 30 nM. Further, on Human P2Y12 receptor, the IC50 was determined as 113 nM.

In test [1], `CCCc1cc2c(N3CCn4c(nnc4C(F)(F)F)C3)nc(-c3nnc(Cc4ccccc4)o3)nc2s1` [Example 4-42, 7-[2-(5-Benzyl-[1,3,4]oxadiazol-2-yl)-6-propyl-thieno[2,3-d]pyrimidin-4-yl]-3-trifluoromethyl-5,6,7,8-tetrahydro-[1,2,4]triazolo[4,3-a]pyrazine] yielded an inhibition constant Ki of 160 nM. Further, the IC50 on Human P2Y12 receptor stood at 29 nM.

For `CCCc1cc2c(N3CCn4c(nnc4C(F)(F)F)C3)nc(CC(N)=O)nc2s1` [Example 4-55, 2-[6-Propyl-4-(3-trifluoromethyl-5,6-dihydro-8H-[1,2,4]triazolo[4,3-a]pyrazin-7-yl)-thieno[2,3-d]pyrimidin-2-yl]-acetamide], in test [1], the Ki stood at 4.2 nM. Also, on Human P2Y12 receptor, the concentration for half-maximal inhibition (IC50) is 174 nM.

`CCCc1cc2c(N3CCn4c(nnc4C(F)(F)F)C3)nc(CN3CC[C@@H](O)C3)nc2s1` [Example 4-21, (R)-1-[6-Propyl-4-(3-trifluoromethyl-5,6-dihydro-8H-[1,2,4]triazolo[4,3-a]pyrazin-7-yl)thieno[2,3-d]pyrimidin-2-ylmethyl]pyrrolidin-3-ol] showed an inhibitory constant (Ki) in test [1] of 140 nM. The IC50 at Human P2Y12 receptor came to 1110 nM.

In test [1], `CCCc1cc2c(N3CCn4c(nnc4C(F)(F)F)C3)nc(Sc3ncccn3)nc2s1` [Example 3-53, 7-[6-Propyl-2-(pyrimidin-2-ylsulfanyl)-thieno[2,3-d]pyrimidin-4-yl]-3-trifluoromethyl-5,6,7,8-tetrahydro-[1,2,4]triazolo[4,3-a]pyrazine] yielded a Ki of 760 nM. The concentration for half-maximal inhibition (IC50) on Human P2Y12 receptor came out at 570 nM.

In turn, `CCCc1cc2c(N3CCn4c(nnc4C(F)(F)F)C3)nc(OCc3ccncc3)nc2s1` [Example 3-25, 7-[6-Propyl-2-(pyridin-4-ylmethoxy)-thieno[2,3-d]pyrimidin-4-yl]-3-trifluoromethyl-5,6,7,8-tetrahydro-[1,2,4]triazolo[4,3-a]pyrazine] displayed a Ki in test [1] of 930 nM. The half-maximal inhibitory concentration (IC50) on Human P2Y12 receptor came to 170 nM.

In turn, `CCCc1cc2c(N3CCn4c(nnc4C(F)(F)F)C3)nc(-c3nc(CC(=O)OCC)cs3)nc2s1` [Example 4-51, {2-[6-Propyl-4-(3-trifluoromethyl-5,6-dihydro-8H-[1,2,4]triazolo[4,3-a]pyrazin-7-yl)thieno[2,3-d]pyrimidin-2-yl]thiazol-4-yl}acetic acid ethyl ester] returned an inhibitory constant (Ki) in test [1] of 36 nM. The IC50 at Human P2Y12 receptor came out at 40 nM.

For the compound `CCCc1cc2c(N3CCn4c(nnc4C(F)(F)F)C3)nc(N3CCC[C@H]3C(=O)O)nc2s1` [Example 1-50, (S)-1-[6-Propyl-4-(3-trifluoromethyl-5,6-dihydro-8H-[1,2,4]triazolo[4,3-a]pyrazin-7-yl)-thieno[2,3-d]pyrimidin-2-yl]-pyrrolidine-2-carboxylic acid], the Ki in test [1] is 40 nM. Further, at Human P2Y12 receptor, the IC50 is 110 nM.

Compound `CCCc1cc2c(N3CCn4c(nnc4C(F)(F)F)C3)nc(N3CC(=NOC)C(N)C3)nc2s1` (stereo not drawn) [Example 1-117, 4-Amino-1-[6-propyl-4-(3-trifluoromethyl-5,6-dihydro-8H-[1,2,4]triazolo[4,3-a]pyrazin-7-yl)-thieno[2,3-d]pyrimidin-2-yl]-pyrrolidin-3-one O-methyl-oxime] gave an inhibitory constant (Ki) in test [1] of 42 nM. Besides, the 50% inhibitory concentration (IC50) at Human P2Y12 receptor stood at 220 nM.

For `CCCc1cc2c(N3CCn4c(nnc4C(F)(F)F)C3)nc(N[C@@H]3CCNC3)nc2s1` [Example 1-130, [6-Propyl-4-(3-trifluoromethyl-5,6-dihydro-8H-[1,2,4]triazolo[4,3-a]pyrazin-7-yl)-thieno[2,3-d]pyrimidin-2-yl]-(R)-pyrrolidin-3-yl-amine], the affinity in test [1], expressed as Ki, was 132 nM. Further, the half-maximal inhibitory concentration (IC50) on Human P2Y12 receptor was determined as 320 nM.

The compound `CCCc1cc2c(N3CCn4c(nnc4C(F)(F)F)C3)nc(N3CC[C@H](C(N)=O)C3)nc2s1` [Example 1-86, (S)-1-[6-Propyl-4-(3-trifluoromethyl-5,6-dihydro-8H-[1,2,4]triazolo[4,3-a]pyrazin-7-yl)-thieno[2,3-d]pyrimidin-2-yl]-pyrrolidine-3-carboxylic acid amide] returned a Ki in test [1] of 11 nM. Moreover, the half-inhibitory concentration (IC50) on Human P2Y12 receptor was found to be 24 nM.

`CCCc1cc2c(N3CCn4c(nnc4C(F)(F)F)C3)nc(N3CCNc4ncccc43)nc2s1` [Example 1-134, 1-[6-Propyl-4-(3-trifluoromethyl-5,6-dihydro-8H-[1,2,4]triazolo[4,3-a]pyrazin-7-yl)thieno[2,3-d]pyrimidin-2-yl]-1,2,3,4-tetrahydro-pyrido[2,3-b]pyrazine] came in with a Ki in test [1] of 869 nM. Also, at Human P2Y12 receptor, the IC50 came to 1000 nM.

For the compound `CCCc1cc2c(N3CCn4c(nnc4C(F)(F)F)C3)nc(N3CC[C@H](C(=O)OC(C)C)C3)nc2s1` [Example 1-58, (S)-1-[6-Propyl-4-(3-trifluoromethyl-5,6-dihydro-8H-[1,2,4]triazolo[4,3-a]pyrazin-7-yl)-thieno[2,3-d]pyrimidin-2-yl]-pyrrolidine-3-carboxylic acid isopropyl ester], the Ki in test [1] is 700 nM. In addition, the IC50 on Human P2Y12 receptor was determined as 190 nM.

Consider `CCCc1cc2c(N3CCn4c(nnc4C(F)(F)F)C3)nc(N(CCO)CCO)nc2s1` [Example 1-34, 2-{(2-Hydroxy-ethyl)-[6-propyl-4-(3-trifluoromethyl-5,6-dihydro-8H-[1,2,4]triazolo[4,3-a]pyrazin-7-yl)-thieno[2,3-d]pyrimidin-2-yl]-amino}-ethanol], for which, in test [1], the affinity corresponds to a Ki of 81 nM. The 50% inhibitory concentration (IC50) on Human P2Y12 receptor is 143 nM.

Usually Ki stands for the equilibrium dissociation constant of an inhibitor or competing ligand from its target. As a reminder, the IC50 is the concentration that inhibits the measured activity by half.

For the origin of these results see patent US20110166121A1 (LG LIFE SCIENCES LTD., priority 2008, published 2011).
